“And” between values parts separate entries of the source, which are not always exact repeats. Identical values can stand only once.
How the values were obtained:
CYP3A4 = CYP3A4 (Homo sapiens, UniProt P08684); format: in vitro ADME; settings: incubated with 0.01 and 0.1 µM opelconazole
Procedure: (§1) The testing of opelconazole as a potential substrate of CYP1A2, 2B6, 2C8, 2C9, 2C19, 2D6 and 3A4 was determined in vitro using recombinant CYP enzymes. Two concentrations of opelconazole (0.01 and 0.1 µM) were tested with each of the seven CYPs.
(§2) The relative contributions of CYP3A4 and CYP2C9 were ∼75% and 25%, respectively, when incubated with 0.01 and 0.1 µM opelconazole.

[1] = tested on: cryopreserved human hepatocytes; assay: MTT cytotoxicity assessment in hepatocytes; format: cell-based; settings: up to 3 μM, one donor
Procedure: (§3) The hepatocyte cells were dosed with opelconazole (0.012, 0.03, 0.12, 0.3, 1.2 and 3 μM) and positive control compounds (omeprazole for CYP1A2 and rifampicin for CYP3A4).

CYP2C9 = CYP2C9 (Homo sapiens, UniProt P11712); assay: Reaction phenotyping with recombinant CYP enzymes (opelconazole as substrate); format: in vitro ADME; settings: incubated with 0.01 and 0.1 µM opelconazole
Procedure: as §1, §2

CYP isoforms = assay: Initial CYP inhibition study in human liver microsomes; format: in vitro ADME; settings: opelconazole 0.03 to 5 μM
Procedure: The potential for opelconazole to inhibit CYP isoforms was tested in vitro in human liver microsomes. […] Preincubation of the human liver microsomes for periods of 0 min without NADPH and 30 min with NADPH, plus 30 min without NADPH were included to assess for a time-dependent inhibition effect. Two structurally diverse substrates (testosterone and midazolam) were tested to assess substrate-dependent inhibition.

[2] = Phase 1 study: safety and tolerability; format: in vivo, human
Procedure: Safety and tolerability were assessed by monitoring the incidence, nature and severity of adverse events (AEs) as well as by vital-sign measurements, 12-lead ECGs, clinical laboratory testing (haematology, chemistry and urinalysis), physical examination and lung function testing [forced expiratory volume in one second (FEV1) and forced vital capacity (FVC)].

[3] = Phase 1 study: plasma pharmacokinetics of inhaled opelconazole in healthy volunteers; format: in vivo, human
Procedure: The study was conducted from February 2023 through June 2023 in accordance with the Declaration of Helsinki, Good Clinical Practice, and the International Conference on Harmonisation guidelines (South African National Clinical Trial Registry code: DOH-27-122022-5196). The study documents were approved by an Independent Ethics Committee. Study participants provided written informed consent prior to any study procedures.
Screening occurred within 28 days prior to the first dosing day (Figure 1). Participants were admitted to the study centre on Day −1 and were required to stay there until approximately 48 h after the morning dosing on Day 15. They returned for subsequent PK blood samples at approximately 72 (Day 18), 168 (Day 22) and 336 h (Day 29) after the last morning dosing. On Days 1 and 15, participants received oral midazolam 7.5 mg and oral caffeine 180 mg together after food ingestion.
Standard doses of midazolam and caffeine were used to characterize their PK profiles. The dose selected for opelconazole, 14.8 mg twice daily, is the dose utilized in the clinical development programme for the treatment and prevention of invasive pulmonary aspergillosis (IPA). Following 14 days of twice daily dosing, plasma concentrations were expected to be within 80% of steady-state concentrations and deemed appropriate to assess potential interactions with the probe substrates.
Study participants inhaled opelconazole 14.8 mg twice daily using the PARI LC SPRINT® jet nebuliser for 14 days, starting on Day 2 through Day 15. Morning doses of opelconazole on Day 2 and Day 15 were taken 30 min after food ingestion. Blood samples were taken for PK analyses for midazolam, metabolites of midazolam (1-OH-midazolam and 4-OH-midazolam) and caffeine on Days 1 and 15 at pre-dose (0 h), at 0.5, 1, 1.5, 2, 3, 4, 6, 8, 10, 12, 16, 24, 30, 36 and 48 h post-dose on Days 1 and 15. Blood samples were taken for PK analyses for opelconazole as follows: on Day 2 at pre-morning dose (0 h), at 0.5, 1, 2, 4, 6, 8, 12 and 24 h post-morning dose; on Day 15: at pre-morning-dose (0 h), at 0.5, 1, 2, 4, 6, 8, 10, 12, 24 (Day 16), 30 (Day 16), 36 (Day 16), 48 (Day 17), 72 (Day 18), 168 (Day 22) and 336 (Day 29) h post-morning-dosing.
Primary PK parameters assessed for midazolam and its metabolites (1-OH-midazolam, 4-OH-midazolam), caffeine and opelconazole were Cmax and AUC, from time zero to t, where t is the time of the last quantifiable concentration (AUC(0−t); i.e., AUC(0−12) and AUC(0−24)). Secondary PK parameters were AUC(0−∞), Tmax, apparent t1/2 and accumulation ratio (RO) of opelconazole only.

[4] = parameters: method as in PMID 33340279; settings: cited from earlier work
[5] = parameters: method as in unpublished data; L.M.R. Cass and L. Berman; settings: ref unpublished data; L.M.R. Cass and L. Berman; cited from earlier work
[6] = tested on: OAT1, OAT3, OCT1, OCT2, OATP1B1, OATP1B3, MATE-1, MATE2-K, P-gp, BCRP, BSEP; assay: Opelconazole as substrate of carrier transporters; format: in vitro ADME, human; settings: 0.5 and 5 μM; MDCKII, HEK293 cells, BSEP sf9 vesicles
Procedure: Human transporter protein interactions with opelconazole as a potential substrate and/or inhibitor were assessed for the following key carrier transporters: organic anion transporters, OAT1 and OAT3; organic cation transporters, OCT1 and OCT2; OATP1B1 and OATP1B3; multidrug and toxin extrusion, MATE-1 and MATE2-K; key ATP-binding cassette (ABC) transporters including P-gp, breast cancer resistance protein (BCRP) and bile salt export pump (BSEP). Two concentrations of opelconazole, 0.5 and 5 μM, were tested using MDCKII cells, human embryonic kidney 293 cells and BSEP-transfected sf9 membrane vesicles and then analysed by LC-tandem MS to determine transporter inhibition and whether opelconazole was a transporter substrate. The viability of experimental test systems was confirmed with controls and known probe substrates and probe inhibitors.

CYP2B6 = assay: CYP induction, mRNA endpoint, cryopreserved human hepatocytes; format: in vitro ADME; settings: any of the three donors
Procedure: as §3

[7] = Day 2, inhaled 14.8 mg twice daily
[8] = Day 15, after 14 days inhaled 14.8 mg twice daily

Chain of CYP3A4 (P08684 whole entry): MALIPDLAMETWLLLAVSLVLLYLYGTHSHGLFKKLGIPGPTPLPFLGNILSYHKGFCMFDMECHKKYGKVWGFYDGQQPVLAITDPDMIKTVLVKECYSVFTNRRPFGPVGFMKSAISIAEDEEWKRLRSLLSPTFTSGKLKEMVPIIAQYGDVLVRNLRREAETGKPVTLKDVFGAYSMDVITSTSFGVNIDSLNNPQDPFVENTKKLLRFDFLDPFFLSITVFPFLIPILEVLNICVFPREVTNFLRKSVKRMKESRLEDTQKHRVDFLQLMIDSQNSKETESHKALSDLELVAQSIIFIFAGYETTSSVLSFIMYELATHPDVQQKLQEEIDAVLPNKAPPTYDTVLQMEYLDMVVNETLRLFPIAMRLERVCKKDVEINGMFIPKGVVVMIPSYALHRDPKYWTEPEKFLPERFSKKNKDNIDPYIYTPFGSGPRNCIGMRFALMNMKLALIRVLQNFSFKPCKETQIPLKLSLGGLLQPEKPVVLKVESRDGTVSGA
Chain of CYP2C9 (P11712 whole entry): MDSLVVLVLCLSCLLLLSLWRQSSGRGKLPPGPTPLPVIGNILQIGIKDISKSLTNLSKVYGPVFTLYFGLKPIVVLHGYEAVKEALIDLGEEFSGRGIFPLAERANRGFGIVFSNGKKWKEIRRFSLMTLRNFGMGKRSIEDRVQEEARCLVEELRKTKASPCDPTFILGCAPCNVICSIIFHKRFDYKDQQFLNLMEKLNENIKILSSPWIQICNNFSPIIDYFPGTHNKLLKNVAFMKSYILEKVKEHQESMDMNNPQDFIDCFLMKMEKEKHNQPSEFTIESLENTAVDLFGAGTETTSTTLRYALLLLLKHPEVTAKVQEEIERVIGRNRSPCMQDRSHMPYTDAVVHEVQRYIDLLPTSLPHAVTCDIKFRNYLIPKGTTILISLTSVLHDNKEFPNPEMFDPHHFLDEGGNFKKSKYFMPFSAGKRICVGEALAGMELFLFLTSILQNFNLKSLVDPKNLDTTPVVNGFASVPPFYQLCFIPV

SMILES: Cc1cc(N2CCN(c3ccc(C(=O)Nc4ccc(F)cc4)cc3)CC2)ccc1OC[C@@H]1CO[C@@](Cn2cncn2)(c2ccc(F)cc2F)C1 [opelconazole]
- relative contribution of CYP3A4 to metabolism of opelconazole (CYP3A4): ~75%
- cytotoxicity (MTT) [1]: no cytotoxicity was observed
- relative contribution of CYP2C9 to metabolism of opelconazole (CYP2C9): ~25%
- CYP inhibition, initial study (CYP isoforms): limited to CYP3A4
- headache considered related to inhaled opelconazole, participants ([2]; 5/24 participants, all mild, 14.8 mg twice daily for 14 days with midazolam/caffeine): 20.8%
- post-dose acute bronchospasm ([2]; any participant who received opelconazole): no evidence
- changes in lung function (FEV1 and FVC) ([2]; any timepoint during the study): No clinically significant changes
- deaths or serious AEs ([2]; healthy volunteers N = 24, 14.8 mg twice daily for 14 days): No deaths or serious AEs were reported
- tolerability ([2]; inhaled 14.8 mg twice daily): generally well tolerated
- AUC(0–12 h), geometric mean (CV%) ([3]; Day 2 (first dosing day), inhaled 14.8 mg twice daily): 7.81 (27.8) h·ng/mL
- AUC(0-t), geometric mean (CV%) [3, 7]: 19.9 (29.4) h·ng/mL
- AUC(0–24 h), geometric mean (CV%) [3, 7]: 19.6 (29.4) h·ng/mL
- Cmax, geometric mean (CV%) [3, 7]: 0.91 (29.3) ng/mL
- Tmax, median (range) [3, 7]: 6.17 (2.17, 12.1) h
- AUC(0-t), geometric mean (CV%) [3, 8]: 1270 (45.8) h·ng/mL
- AUC(0–12 h), geometric mean (CV%) [3, 8]: 69.8 (45.4) h·ng/mL
- AUC(0–24 h), geometric mean (CV%) [3, 8]: 136 (46.7) h·ng/mL
- Cmax, geometric mean (CV%) [3, 8]: 7.07 (47.2) ng/mL
- Tmax, median (range) [3, 8]: 4.17 (0.67, 48.0) h
- t½, geometric mean (CV%) [3, 8]: 188 (21.4) h
- AUC(0−∞), geometric mean (CV%) ([3]; Day 15, inhaled 14.8 mg twice daily, n=2): 1720 (31.2) h·ng/mL
- RO (accumulation ratio) AUC(0–12 h) Day 15/Day 2, geometric mean (CV%) ([3]; inhaled 14.8 mg twice daily): 8.93 (38.4)
- RO (accumulation ratio) AUC(0–24 h) Day 15/Day 2, geometric mean (CV%) ([3]; inhaled 14.8 mg twice daily): 6.97 (35.8)
- RO (accumulation ratio) Cmax Day 15/Day 2, geometric mean (CV%) ([3]; inhaled 14.8 mg twice daily): 7.77 (46.7)
- observed RO (Day 15/Day 2) for AUC0–12h ([3]; inhaled 14.8 mg twice daily): 8.9 fold
- observed RO (Day 15/Day 2) for Cmax ([3]; inhaled 14.8 mg twice daily): 7.8 fold
- Cmax ([3]; multiple inhaled doses, clinical dosing, read-out: systemic Cmax at steady state): 0.01 µM and ≤ 0.01 µM
- plasma protein binding (PPB) [4]: 97%
- oral bioavailability of any swallowed fraction [5]: negligible
- substrate of carrier transporters [6]: not a substrate
- CYP2B6 mRNA expression (CYP2B6): did not increase mRNA expression
